Data published in patent US20250163104A1, “MACROCYCLIC IMMUNOMODULATORS” (priority 2021, published 2025).
Where a SMILES comes first, the peptide text is derived from it. Bridges are numbered along the chain shown (N, C = ends). [ ]: non-standard residue; d: D form. The star is where a group is joined. Phe(4-COOH) = N[C@@H](Cc1ccc(C(=O)O)cc1)C(=O)O; Bip = N[C@@H](Cc1ccc(-c2ccccc2)cc1)C(=O)O; Phe(3-Me) = Cc1cccc(C[C@H](N)C(=O)O)c1; 4Pal = N[C@@H](Cc1ccncc1)C(=O)O; Cha = N[C@@H](CC1CCCCC1)C(=O)O; Cit = NC(=O)NCCC[C@H](N)C(=O)O; Carboxymethyl = O=C(O)C*; Nle = CCCC[C@H](N)C(=O)O; Orn = NCCC[C@H](N)C(=O)O; Dab = NCC[C@H](N)C(=O)O; Dap = NC[C@H](N)C(=O)O

Molecular target: T1, human PD-1 / PD-L1-Ig binding on Jurkat cell line over-expressing human PD-1 (Jurkat-PD-1) (Homo sapiens, UniProt Q15116)
T1 construct: expressed in transfected cells; host or cells: Jurkat
Assay: Jurkat-PD-1 Cell Binding High-Content Screening Assay (CBA)
Type: cell-based
Conditions: Jurkat-PD-1 cells, PE-labeled PD-L1-Ig 20 nM final; read-out: Jurkat HPD1_PDL1 IC50
In short: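 Cell-bound PE-labeled PD-L1-Ig (20 nM final, 1 h) measured by high-content imaging after fixation and Hoechst 33342 counterstain. Compound was applied first for 2 h at 37° C. to Jurkat cells over-expressing human PD-1 in DMEM with 10% FCS.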

T1 sequence (Q15116 25-288): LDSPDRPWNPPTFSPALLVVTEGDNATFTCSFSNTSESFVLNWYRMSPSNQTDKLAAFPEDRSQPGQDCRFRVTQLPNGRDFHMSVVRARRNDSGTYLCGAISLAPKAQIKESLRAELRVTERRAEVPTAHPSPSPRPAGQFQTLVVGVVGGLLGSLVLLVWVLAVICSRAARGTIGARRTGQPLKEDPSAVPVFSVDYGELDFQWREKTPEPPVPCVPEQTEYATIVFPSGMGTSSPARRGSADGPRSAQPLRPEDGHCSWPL

Q: For `CC(C)C[C@@H]1NC(=O)[C@H](Cc2c[nH]c3ccccc23)NC(=O)[C@H](CC(=O)O)NC(=O)[C@H](Cc2ccncc2)NC(=O)[C@H](Cc2ccc(OCC(=O)O)cc2)NC(=O)CSC[C@@H](C(=O)NCC(N)=O)NC(=O)[C@H](CO)NC(=O)[C@H](C(C)C)NC(=O)[C@H](CC(C)C)NC(=O)[C@H](CC(N)=O)NC(=O)[C@@H](CC(C)C)NC(=O)[C@H](CCN)NC(=O)[C@H](C(C)C)NC(=O)[C@H](Cc2ccc(-c3ccccc3)cc2)NC1=O` [Compound 1282] ({CH2CO}-Y(Carboxymethyl)[4Pal]DWL[Bip]V[Dab][dL]NLVSCG-NH2; thioether N-14), which IC50 is on record?
A: 0.0118 µM

Q: `CC(C)C[C@@H]1NC(=O)[C@H](Cc2c[nH]c3ccccc23)NC(=O)[C@H](CC(=O)O)NC(=O)[C@H](Cc2ccc(C(=O)O)cc2)NC(=O)[C@H](Cc2ccc(OCC(=O)O)cc2)NC(=O)CSC[C@@H](C(=O)NCC(N)=O)NC(=O)[C@H](CO)NC(=O)[C@H](C(C)C)NC(=O)[C@H](CC(C)C)NC(=O)[C@H](CC(N)=O)NC(=O)[C@@H](CC(C)C)NC(=O)[C@H](CCCN)NC(=O)[C@H](C(C)C)NC(=O)[C@H](Cc2ccc(-c3ccccc3)cc2)NC1=O` [Compound 1283] ({CH2CO}-Y(Carboxymethyl)[Phe(4-COOH)]DWL[Bip]V[Orn][dL]NLVSCG-NH2; thioether N-14) was tested. Which IC50 did it give?
A: 0.0245 µM

Q: How did the IC50 turn out when `CC(C)C[C@@H]1NC(=O)[C@H](Cc2c[nH]c3ccccc23)NC(=O)[C@H](CC(=O)O)NC(=O)[C@H](Cc2ccncc2)NC(=O)[C@H](CN)NC(=O)CSC[C@@H](C(=O)NCC(N)=O)NC(=O)[C@H](CO)NC(=O)[C@H](C(C)C)NC(=O)[C@H](CC(C)C)NC(=O)[C@H](CC(N)=O)NC(=O)[C@@H](CC(C)C)NC(=O)[C@H](CCCN)NC(=O)[C@H](C(C)C)NC(=O)[C@H](Cc2ccc(-c3ccccc3)cc2)NC1=O` [Compound 1285] ({CH2CO}-[Dap][4Pal]DWL[Bip]V[Orn][dL]NLVSCG-NH2; thioether N-14) was run?
A: 0.0426 µM

Q: How did the IC50 turn out when `CC(C)C[C@@H]1NC(=O)[C@H](Cc2c[nH]c3ccccc23)NC(=O)[C@H](CC(=O)O)NC(=O)[C@H](Cc2ccncc2)NC(=O)[C@H](Cc2ccc(OCC(=O)O)cc2)NC(=O)CSC[C@@H](C(=O)NCC(N)=O)NC(=O)[C@H](CO)NC(=O)[C@H](C(C)C)NC(=O)[C@H](CC(C)C)NC(=O)[C@H](CC(N)=O)NC(=O)[C@@H](CC(C)C)NC(=O)[C@H](CCCN)NC(=O)[C@H](C(C)C)NC(=O)[C@H](Cc2ccc(-c3ccccc3)cc2)NC1=O` [Compound 1286] ({CH2CO}-Y(Carboxymethyl)[4Pal]DWL[Bip]V[Orn][dL]NLVSCG-NH2; thioether N-14) was run?
A: 0.0503 µM

Q: For `CC(C)C[C@@H]1NC(=O)[C@H](CC(N)=O)NC(=O)[C@@H](CC(C)C)NC(=O)[C@H](CN)NC(=O)[C@H](C(C)C)NC(=O)[C@H](Cc2ccc(-c3ccccc3)cc2)NC(=O)[C@H](C(C)C)NC(=O)[C@H](Cc2c[nH]c3ccccc23)NC(=O)[C@H](CC(=O)O)NC(=O)[C@H](Cc2ccc(C(=O)O)cc2)NC(=O)[C@H](Cc2ccc(OCC(=O)O)cc2)NC(=O)CSC[C@@H](C(=O)NCC(N)=O)NC(=O)[C@H](CO)NC(=O)[C@H](C(C)C)NC1=O` [Compound 1288] ({CH2CO}-Y(Carboxymethyl)[Phe(4-COOH)]DWV[Bip]V[Dap][dL]NLVSCG-NH2; thioether N-14), which IC50 is on record?
A: 0.0389 µM

Q: Which IC50 does the source give for `CC(C)C[C@@H]1NC(=O)[C@H](CC(N)=O)NC(=O)[C@@H](CC(C)C)NC(=O)[C@H](CN)NC(=O)[C@H](C(C)C)NC(=O)[C@H](Cc2ccc(-c3ccccc3)cc2)NC(=O)[C@H](C(C)C)NC(=O)[C@H](Cc2c[nH]c3ccccc23)NC(=O)[C@H](CC(=O)O)NC(=O)[C@H](Cc2ccc(OCC(=O)O)cc2)NC(=O)[C@H](CN)NC(=O)CSC[C@@H](C(=O)NCC(N)=O)NC(=O)[C@H](CO)NC(=O)[C@H](C(C)C)NC1=O` [Compound 1289] ({CH2CO}-[Dap]Y(Carboxymethyl)DWV[Bip]V[Dap][dL]NLVSCG-NH2; thioether N-14) here?
A: 0.011 µM

Q: With `CC(C)C[C@@H]1NC(=O)[C@H](CC(N)=O)NC(=O)[C@@H](CC(C)C)NC(=O)[C@H](CN)NC(=O)[C@H](C(C)C)NC(=O)[C@H](Cc2ccc(-c3ccccc3)cc2)NC(=O)[C@H](C(C)C)NC(=O)[C@H](Cc2c[nH]c3ccccc23)NC(=O)[C@H](CC(=O)O)NC(=O)[C@H](Cc2ccncc2)NC(=O)[C@H](Cc2ccc(OCC(=O)O)cc2)NC(=O)CSC[C@@H](C(=O)NCC(N)=O)NC(=O)[C@H](CO)NC(=O)[C@H](C(C)C)NC1=O` [Compound 1290] ({CH2CO}-Y(Carboxymethyl)[4Pal]DWV[Bip]V[Dap][dL]NLVSCG-NH2; thioether N-14) as the molecule, how does the IC50 read?
A: 0.0506 µM

Q: Which IC50 does the source give for `CC(C)C[C@@H]1NC(=O)[C@H](Cc2c[nH]c3ccccc23)NC(=O)[C@H](CC(=O)O)NC(=O)[C@H](Cc2ccc(OCC(=O)O)cc2)NC(=O)[C@H](Cc2ccc(OCC(=O)O)cc2)NC(=O)CSC[C@@H](C(=O)NCC(N)=O)NC(=O)[C@H](CO)NC(=O)[C@H](C(C)C)NC(=O)[C@H](CC(C)C)NC(=O)[C@H](CC(N)=O)NC(=O)[C@@H](CC(C)C)NC(=O)[C@H](CN)NC(=O)[C@H](C(C)C)NC(=O)[C@H](Cc2ccc(-c3ccccc3)cc2)NC1=O` [Compound 1291] ({CH2CO}-Y(Carboxymethyl)Y(Carboxymethyl)DWL[Bip]V[Dap][dL]NLVSCG-NH2; thioether N-14) here?
A: 0.0121 µM

Q: How did the IC50 turn out when `CC(C)C[C@@H]1NC(=O)[C@H](CC(N)=O)NC(=O)[C@@H](CC(C)C)NC(=O)[C@H](CN)NC(=O)[C@H](C(C)C)NC(=O)[C@H](Cc2ccc(-c3ccccc3)cc2)NC(=O)[C@H](C(C)C)NC(=O)[C@H](Cc2c[nH]c3ccccc23)NC(=O)[C@H](CC(=O)O)NC(=O)[C@H](Cc2ccc(OCC(=O)O)cc2)NC(=O)[C@H](Cc2ccc(OCC(=O)O)cc2)NC(=O)CSC[C@@H](C(=O)NCC(N)=O)NC(=O)[C@H](CO)NC(=O)[C@H](C(C)C)NC1=O` [Compound 1292] ({CH2CO}-Y(Carboxymethyl)Y(Carboxymethyl)DWV[Bip]V[Dap][dL]NLVSCG-NH2; thioether N-14) was run?
A: 0.0072 µM

Q: Which IC50 does the source give for `CC(C)C[C@@H]1NC(=O)[C@H](CC(N)=O)NC(=O)[C@@H](CC(C)C)NC(=O)[C@H](CN)NC(=O)[C@H](C(C)C)NC(=O)[C@H](Cc2ccc(-c3ccccc3)cc2)NC(=O)[C@H](C(C)C)NC(=O)[C@H](Cc2c[nH]c3ccccc23)NC(=O)[C@H](CC(=O)O)NC(=O)[C@H](Cc2ccncc2)NC(=O)[C@H](CN)NC(=O)CSC[C@@H](C(=O)NCC(N)=O)NC(=O)[C@H](CO)NC(=O)[C@H](C(C)C)NC1=O` [Compound 1293] ({CH2CO}-[Dap][4Pal]DWV[Bip]V[Dap][dL]NLVSCG-NH2; thioether N-14) here?
A: 0.0106 µM

Q: With `CCCC[C@@H]1NC(=O)[C@H](CCN)NC(=O)[C@@H](CC(C)C)NC(=O)[C@H](CCCN)NC(=O)[C@H](CCCNC(N)=O)NC(=O)[C@H](Cc2ccc(-c3ccccc3)cc2)NC(=O)[C@H](CC(C)C)NC(=O)[C@H](Cc2cccc(C)c2)NC(=O)[C@H](CC(=O)O)NC(=O)[C@H](Cc2ccc(OCC(=O)O)cc2)NC(=O)[C@H](CN)NC(=O)CSC[C@@H](C(=O)N[C@@H](C)C(N)=O)NC(=O)[C@H]([C@@H](C)O)NC(=O)[C@H](C(C)C)NC1=O` [Compound 1295] ({CH2CO}-[Dap]Y(Carboxymethyl)D[Phe(3-Me)]L[Bip][Cit][Orn][dL][Dab][Nle]VTCA-NH2; thioether N-14) as the molecule, how does the IC50 read?
A: 0.0098 µM

Q: How did the IC50 turn out when `Cc1cccc(C[C@@H]2NC(=O)[C@H](CC(=O)O)NC(=O)[C@H](Cc3ccc(OCC(=O)O)cc3)NC(=O)[C@H](CN)NC(=O)CSC[C@@H](C(=O)N[C@@H](C)C(=O)N[C@@H](CCC(=O)O)C(N)=O)NC(=O)[C@H]([C@@H](C)O)NC(=O)[C@H](C(C)C)NC(=O)[C@H](CC3CCCCC3)NC(=O)[C@H](CCN)NC(=O)[C@@H](CC(C)C)NC(=O)[C@H](CCCN)NC(=O)[C@H](CCCNC(N)=O)NC(=O)[C@H](Cc3ccc(-c4ccccc4)cc3)NC(=O)[C@H](C(C)C)NC2=O)c1` [Compound 1296] ({CH2CO}-[Dap]Y(Carboxymethyl)D[Phe(3-Me)]V[Bip][Cit][Orn][dL][Dab][Cha]VTCAE-NH2; thioether N-14) was run?
A: 0.0135 µM

Q: For `Cc1cccc(C[C@@H]2NC(=O)[C@H](CC(=O)O)NC(=O)[C@H](Cc3ccc(OCC(=O)O)cc3)NC(=O)[C@H](CN)NC(=O)CSC[C@@H](C(=O)N[C@@H](C)C(=O)N[C@@H](CCC(=O)O)C(N)=O)NC(=O)[C@H]([C@@H](C)O)NC(=O)[C@H](C(C)C)NC(=O)[C@H](CC3CCCCC3)NC(=O)[C@H](CCN)NC(=O)[C@@H](CC(C)C)NC(=O)[C@H](CCCN)NC(=O)[C@H](CCCNC(N)=O)NC(=O)[C@H](Cc3ccc(-c4ccccc4)cc3)NC(=O)[C@H](C(C)C)NC2=O)c1` [Compound 1297] ({CH2CO}-[Dap]Y(Carboxymethyl)D[Phe(3-Me)]V[Bip][Cit][Orn][dL][Dab][Cha]VTCAE-NH2; thioether N-14), which IC50 is on record?
A: 0.0094 µM

Q: For `Cc1cccc(C[C@@H]2NC(=O)[C@H](CC(=O)O)NC(=O)[C@H](Cc3ccc(OCC(=O)O)cc3)NC(=O)[C@H](CN)NC(=O)CSC[C@@H](C(=O)N[C@@H](C)C(=O)O)NC(=O)[C@H]([C@@H](C)O)NC(=O)[C@H](C(C)C)NC(=O)[C@H](CC3CCCCC3)NC(=O)[C@H](CCN)NC(=O)[C@@H](CC(C)C)NC(=O)[C@H](CCCN)NC(=O)[C@H](CCCNC(N)=O)NC(=O)[C@H](Cc3ccc(-c4ccccc4)cc3)NC(=O)[C@H](C(C)C)NC2=O)c1` [Compound 1300], which IC50 is on record?
A: 0.005 µM

Q: `Cc1cccc(C[C@@H]2NC(=O)[C@H](CC(=O)O)NC(=O)[C@H](Cc3ccc(OCC(=O)O)cc3)NC(=O)[C@H](CN)NC(=O)CSC[C@@H](C(=O)N[C@@H](CCC(=O)O)C(=O)O)NC(=O)[C@H]([C@@H](C)O)NC(=O)[C@H](C(C)C)NC(=O)[C@H](CC3CCCCC3)NC(=O)[C@H](CCN)NC(=O)[C@@H](CC(C)C)NC(=O)[C@H](CCCN)NC(=O)[C@H](CCCNC(N)=O)NC(=O)[C@H](Cc3ccc(-c4ccccc4)cc3)NC(=O)[C@H](C(C)C)NC2=O)c1` [Compound 1301] ({CH2CO}-[Dap]Y(Carboxymethyl)D[Phe(3-Me)]V[Bip][Cit][Orn][dL][Dab][Cha]VTCE-OH; thioether N-14) was tested. Which IC50 did it give?
A: 0.0059 µM
